Paper PMC11174926, “Composition Characterization of Cinnamomum osmophloeum Kanehira Hydrosol and Its Enhanced Effects on Erectile Function” (Plants, 2024)

Columns and labels:
PDE5 [1] = target: T1, PDE5 (Homo sapiens, UniProt O76074); experiment: PDE5 inhibition assay (PDE5A1 assay kit); assay type: biochemical
T1 construct: purchased BPS Bioscience
Experimental: The PDE5 assay was determined by using a PDE5A1 assay kit (BPS Bioscience, San Diego, CA, USA). The experiments were conducted following the manufacturer’s protocol. Sildenafil (10 nM) was used as a positive control.

Hep3B cells = experiment: Cytotoxicity, MTT assay; assay type: cell-based; conditions: 200 µM, 24 h
Experimental: Figure S19. NOESY spectrum of 2-(2-hydroxyphenyl)oxetan-3-ol (7).
Figure S20. Cytotoxicity of CO hydrosol and its compounds on Hep3B. […]
trans-PO: trans-phenyloxetan-3-ol; cis-PO: cis-phenyloxetan-3-ol; trans-CA: trans- […]
The Hep3B cells were maintained in Dulbecco’s Modified Eagle medium (DMEM; HyClone,Washington, DC, US), supplemented with 10% fetal bovine sera(FBS; Gibco,Waltham, MA, US), 1 mM sodium pyruvate (Corning), and 1% […]
penicillin/streptomycin (Corning) at 37 ℃ in a humidified atmosphere of 5% CO2. Cell viability was measured using a colorimetric MTT assay. Cells were seeded in 96-well plates at a density of 1 × 1 0 4 cells/well. Stock solutions of samples in dimethyl sulfoxide (DMSO; Sigma-Aldrich) were stored in the dark at 4 ℃. Appropriate dilutions were prepared on the day of the experiments. […]
exceed 0.25% (v/v). After 24 h incubated with samples, the culture medium was removed and replaced with fresh medium containing 0.5 mg/mL of MTT (Sigma-Aldrich) for 1 h. The supernatant was removed and added 100 µL DMSO to dissolve formazan. Absorption at 570 nm for each well was measured using an ELISA microplate reader (BioTeck Instruments, Winooski, VT, USA).

PDE5 [2] = tested on: PDE5; set-up: method as in PMID 18778098; conditions: cited from earlier work

SMILES | IC50 (PDE5 [1]) | inhibition at 0.1 µM (PDE5 [1]; read-out: PDE5 inhibition rate) | inhibition at 0.5 µM (PDE5 [1]; read-out: PDE5 inhibition rate) | inhibition at 1 µM (PDE5 [1]; read-out: PDE5 inhibition rate) | inhibition at 5 µM (PDE5 [1]; 5 µM, read-out: PDE5 inhibition rate) | inhibition at 10 µM (PDE5 [1]; read-out: PDE5 inhibition rate) | cytotoxicity (Hep3B cells) | inhibition at 20 µM (PDE5 [1]; 20 µM, read-out: PDE5 inhibition rate) | IC50 (PDE5 [2]) | PDE5 inhibition rate (PDE5 [2]; 10 µM)
O[C@H]1CO[C@H]1c1ccccc1 (relative stereo) [cis-phenyloxetan-3-ol] | 3.4 µM | 10.8% | 27.1% | 38.1% | 52.1% | 61.9% | no cytotoxicity |  |  | 
O[C@@H]1CO[C@H]1c1ccccc1 (relative stereo) [trans-phenyloxetan-3-ol] | 4.37 µM | 11.5% | 26.1% | 36.7% |  | 58.4% | no cytotoxicity | 65.3% |  | 
COc1ccc(-c2oc3c(CC=C(C)C)c(O[C@@H]4O[C@H](CO)[C@@H](O)[C@H](O)[C@H]4O)cc(O)c3c(=O)c2O[C@@H]2O[C@@H](C)[C@H](O)[C@@H](O)[C@H]2O)cc1 [icariin] |  |  |  |  |  |  |  |  | ~5.9 µM | 
O=C/C=C/c1ccccc1 [trans-cinnamaldehyde] |  |  |  |  |  |  |  |  |  | less than 20%
